Holding throughout (assay): relative viability (nuclei count vs DMSO), 5 days (fraction); higher = more cells survive
Compound in the test “KIN001-266 + Dasatinib”: CCN1CCC(CC1)N2C=C(N=N2)CNC3=CC4=C(C(=CN=C4C(=C3)Cl)C#N)NC5=CC(=C(C=C5)F)Cl [KIN001-266] + Cc1nc(Nc2ncc(C(=O)Nc3c(C)cccc3Cl)s2)cc(N2CCN(CCO)CC2)n1 [Dasatinib] (partner 0.075 µM)
The method, boiled down: (§1)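 Relative viability equals treated-well nuclei counts divided by vehicle-well nuclei counts. Counts came from 4× images of lung cancer cell lines grown in 1536-well plates for 5 days after pin-tool dosing on the day after seeding. Dosing used one drug alone or a fixed anchor-drug dose plus five library-drug doses (not always all listed) in √10 steps, and values are medians of duplicate plates.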

Compound in the test “KIN001-266 + Bortezomib”: CCN1CCC(CC1)N2C=C(N=N2)CNC3=CC4=C(C(=CN=C4C(=C3)Cl)C#N)NC5=CC(=C(C=C5)F)Cl [KIN001-266] + CC(C)C[C@H](NC(=O)[C@H](Cc1ccccc1)NC(=O)c1cnccn1)B(O)O [Bortezomib] (partner 0.002 µM)
The method, boiled down:
as §1

Compound in the test “KIN001-266 + Palbociclib”: CCN1CCC(CC1)N2C=C(N=N2)CNC3=CC4=C(C(=CN=C4C(=C3)Cl)C#N)NC5=CC(=C(C=C5)F)Cl [KIN001-266] + CC(=O)c1c(C)c2cnc(Nc3ccc(N4CCNCC4)cn3)nc2n(C2CCCC2)c1=O [Palbociclib] (partner 0.5 µM)
The method, boiled down:
as §1

Compound in the test “KIN001-266 + Alpelisib”: CCN1CCC(CC1)N2C=C(N=N2)CNC3=CC4=C(C(=CN=C4C(=C3)Cl)C#N)NC5=CC(=C(C=C5)F)Cl [KIN001-266] + Cc1nc(NC(=O)N2CCC[C@H]2C(N)=O)sc1-c1ccnc(C(C)(C)C(F)(F)F)c1 [Alpelisib] (partner 2 µM)
The method, boiled down:
as §1

On to NCI-H1666, for which the relative viability came out at 0.798 with KIN001-266 + Dasatinib (first compound 0.08 µM); 0.811 with KIN001-266 + Dasatinib (first compound 0.253 µM); 0.784 in the test with KIN001-266 + Dasatinib (first compound 0.8 µM); 0.833 with KIN001-266 + Dasatinib (first compound 2.53 µM); 0.804 with KIN001-266 + Dasatinib (first compound 8 µM); 1.03 in the test with KIN001-266 + Bortezomib (first compound 0.08 µM). Further, the relative viability with KIN001-266 + Bortezomib (first compound 0.253 µM) amounted to 0.826; with KIN001-266 + Bortezomib (first compound 0.8 µM), 0.668; with KIN001-266 + Bortezomib (first compound 2.53 µM), 0.785; with KIN001-266 + Bortezomib (first compound 8 µM) it was 0.686; with KIN001-266 + Palbociclib (first compound 0.08 µM), 0.61; with KIN001-266 + Palbociclib (first compound 0.253 µM), 0.668. Besides, the relative viability with KIN001-266 + Palbociclib (first compound 0.8 µM) came to 0.601; in the test with KIN001-266 + Palbociclib (first compound 2.53 µM), 0.664; in the test with KIN001-266 + Palbociclib (first compound 8 µM) it was 0.655; with KIN001-266 + Alpelisib (first compound 0.08 µM) it was 0.985; with KIN001-266 + Alpelisib (first compound 0.253 µM), 0.999; with KIN001-266 + Alpelisib (first compound 0.8 µM), 0.901. In addition, the relative viability with KIN001-266 + Alpelisib (first compound 2.53 µM) was 0.887; with KIN001-266 + Alpelisib (first compound 8 µM) it was 0.696.

As to NCI-H1734, the relative viability with KIN001-266 + Dasatinib (first compound 0.08 µM) was 0.474; with KIN001-266 + Dasatinib (first compound 0.253 µM) it was 0.466; with KIN001-266 + Dasatinib (first compound 0.8 µM) it was 0.43; with KIN001-266 + Dasatinib (first compound 2.53 µM), 0.419; in the test with KIN001-266 + Dasatinib (first compound 8 µM), 0.401; in the test with KIN001-266 + Bortezomib (first compound 0.08 µM) it was 1.07. For the same cell line, the relative viability with KIN001-266 + Bortezomib (first compound 0.253 µM) stood at 0.842; with KIN001-266 + Bortezomib (first compound 0.8 µM) it was 0.822; with KIN001-266 + Bortezomib (first compound 2.53 µM), 0.805; with KIN001-266 + Bortezomib (first compound 8 µM) it was 0.768; with KIN001-266 + Palbociclib (first compound 0.08 µM) it was 0.342; with KIN001-266 + Palbociclib (first compound 0.253 µM), 0.539. In addition, the relative viability in the test with KIN001-266 + Palbociclib (first compound 0.8 µM) is 0.345; with KIN001-266 + Palbociclib (first compound 2.53 µM), 0.321; with KIN001-266 + Palbociclib (first compound 8 µM), 0.294; with KIN001-266 + Alpelisib (first compound 0.08 µM), 0.686; with KIN001-266 + Alpelisib (first compound 0.253 µM) it was 0.686; with KIN001-266 + Alpelisib (first compound 0.8 µM), 0.546. Moreover, the values for the relative viability with KIN001-266 + Alpelisib (first compound 2.53 µM) and in the test with KIN001-266 + Alpelisib (first compound 8 µM) were 0.716 and 0.704, respectively.

In the case of EPLC-272H, the relative viability worked out at 0.467 in the test with KIN001-266 + Dasatinib (first compound 0.08 µM); 0.324 with KIN001-266 + Dasatinib (first compound 0.253 µM); 0.333 with KIN001-266 + Dasatinib (first compound 0.8 µM); 0.421 in the test with KIN001-266 + Dasatinib (first compound 2.53 µM); 0.234 in the test with KIN001-266 + Dasatinib (first compound 8 µM); 1.19 with KIN001-266 + Bortezomib (first compound 0.08 µM). The relative viability with KIN001-266 + Bortezomib (first compound 0.253 µM) came to 0.949; with KIN001-266 + Bortezomib (first compound 0.8 µM), 0.751; with KIN001-266 + Bortezomib (first compound 2.53 µM), 0.839; with KIN001-266 + Bortezomib (first compound 8 µM), 0.605; in the test with KIN001-266 + Palbociclib (first compound 0.08 µM), 0.348; in the test with KIN001-266 + Palbociclib (first compound 0.253 µM) it was 0.354. The relative viability with KIN001-266 + Palbociclib (first compound 0.8 µM) was 0.275; with KIN001-266 + Palbociclib (first compound 2.53 µM), 0.307; with KIN001-266 + Palbociclib (first compound 8 µM), 0.312; in the test with KIN001-266 + Alpelisib (first compound 0.08 µM) it was 1.05; with KIN001-266 + Alpelisib (first compound 0.253 µM) it was 0.874; with KIN001-266 + Alpelisib (first compound 0.8 µM), 0.938. The relative viability in the test with KIN001-266 + Alpelisib (first compound 2.53 µM) amounted to 0.842; with KIN001-266 + Alpelisib (first compound 8 µM), 0.74.

For NCI-H2023, the relative viability with KIN001-266 + Dasatinib (first compound 0.08 µM) amounted to 0.608; with KIN001-266 + Dasatinib (first compound 0.253 µM) it was 0.555; in the test with KIN001-266 + Dasatinib (first compound 0.8 µM) it was 0.63; with KIN001-266 + Dasatinib (first compound 2.53 µM), 0.526; with KIN001-266 + Dasatinib (first compound 8 µM) it was 0.533; in the test with KIN001-266 + Bortezomib (first compound 0.08 µM), 1.08. The relative viability turned out to be 1.1 in the test with KIN001-266 + Bortezomib (first compound 0.253 µM); 1.2 in the test with KIN001-266 + Bortezomib (first compound 0.8 µM); 1.03 with KIN001-266 + Bortezomib (first compound 2.53 µM); 0.76 in the test with KIN001-266 + Bortezomib (first compound 8 µM); 0.333 with KIN001-266 + Palbociclib (first compound 0.08 µM); 0.383 with KIN001-266 + Palbociclib (first compound 0.253 µM). The relative viability stood at 0.388 with KIN001-266 + Palbociclib (first compound 0.8 µM); 0.289 with KIN001-266 + Palbociclib (first compound 2.53 µM); 0.288 in the test with KIN001-266 + Palbociclib (first compound 8 µM); 0.672 in the test with KIN001-266 + Alpelisib (first compound 0.08 µM); 0.64 with KIN001-266 + Alpelisib (first compound 0.253 µM); 0.588 in the test with KIN001-266 + Alpelisib (first compound 0.8 µM). Further, the relative viability in the test with KIN001-266 + Alpelisib (first compound 2.53 µM) was found to be 0.598; with KIN001-266 + Alpelisib (first compound 8 µM) it was 0.618.

For BEN, the relative viability was found to be 0.296 with KIN001-266 + Dasatinib (first compound 0.08 µM); 0.362 with KIN001-266 + Dasatinib (first compound 0.253 µM); 0.292 with KIN001-266 + Dasatinib (first compound 0.8 µM); 0.274 with KIN001-266 + Dasatinib (first compound 2.53 µM); 0.345 with KIN001-266 + Dasatinib (first compound 8 µM); 0.899 in the test with KIN001-266 + Bortezomib (first compound 0.08 µM). For the same cell line, the relative viability was determined as 0.698 with KIN001-266 + Bortezomib (first compound 0.253 µM); 0.885 with KIN001-266 + Bortezomib (first compound 0.8 µM); 0.909 with KIN001-266 + Bortezomib (first compound 2.53 µM); 0.921 with KIN001-266 + Bortezomib (first compound 8 µM); 0.439 in the test with KIN001-266 + Palbociclib (first compound 0.08 µM); 0.495 with KIN001-266 + Palbociclib (first compound 0.253 µM). Moreover, the relative viability in the test with KIN001-266 + Palbociclib (first compound 0.8 µM) stood at 0.511; with KIN001-266 + Palbociclib (first compound 2.53 µM) it was 0.467; with KIN001-266 + Palbociclib (first compound 8 µM), 0.507; in the test with KIN001-266 + Alpelisib (first compound 0.08 µM), 0.841; with KIN001-266 + Alpelisib (first compound 0.253 µM), 1.08; in the test with KIN001-266 + Alpelisib (first compound 0.8 µM), 1.03. For the same cell line, the relative viability with KIN001-266 + Alpelisib (first compound 2.53 µM) worked out at 0.997; in the test with KIN001-266 + Alpelisib (first compound 8 µM), 0.916.

Regarding COR-L 105, the relative viability in the test with KIN001-266 + Dasatinib (first compound 0.08 µM) amounted to 0.373; with KIN001-266 + Dasatinib (first compound 0.253 µM), 0.419; in the test with KIN001-266 + Dasatinib (first compound 0.8 µM), 0.343; with KIN001-266 + Dasatinib (first compound 2.53 µM), 0.377; with KIN001-266 + Dasatinib (first compound 8 µM), 0.326; with KIN001-266 + Bortezomib (first compound 0.08 µM) it was 0.886. The relative viability was found to be 0.884 with KIN001-266 + Bortezomib (first compound 0.253 µM); 0.719 with KIN001-266 + Bortezomib (first compound 0.8 µM); 0.768 with KIN001-266 + Bortezomib (first compound 2.53 µM); 0.602 in the test with KIN001-266 + Bortezomib (first compound 8 µM); 0.399 in the test with KIN001-266 + Palbociclib (first compound 0.08 µM); 0.386 with KIN001-266 + Palbociclib (first compound 0.253 µM). Further, the relative viability was found to be 0.376 with KIN001-266 + Palbociclib (first compound 0.8 µM); 0.407 with KIN001-266 + Palbociclib (first compound 2.53 µM); 0.436 with KIN001-266 + Palbociclib (first compound 8 µM); 1.15 with KIN001-266 + Alpelisib (first compound 0.08 µM); 0.859 with KIN001-266 + Alpelisib (first compound 0.253 µM); 1.14 in the test with KIN001-266 + Alpelisib (first compound 0.8 µM). Further, the results for the relative viability with KIN001-266 + Alpelisib (first compound 2.53 µM) and with KIN001-266 + Alpelisib (first compound 8 µM) were 0.9 and 0.896, respectively.

For the origin of these results see the supplement of paper PMC10307832.
